According to patent US11331289B2, “Antimicrobial composition” (priority 2017, dated 2022):

System: MRSP 16125
Assay: Time-killing curve, inoculum 5.10^5 CFU/ml (MIC 0.5 μg/ml)
Type: cell-based, Staphylococcus pseudintermedius
Description: The objective of this study is to assess in vitro the time-killing curves of oxyclozanide against four strains of Methicillin-Resistant Staphylococcus from dogs.
Two Methicillin-Resistant Staphylococcus aureus (MRSA) and two Methicillin-Resistant Staphylococcus pseudintermedius (MRSP) isolated from the clinics have been tested.
The assessment of time-killing curves has been realized by a broth macrodilution method (Mueller-Hinton II Broth).
Oxyclozanide is diluted in (DMSO) into sterile tubes in order to obtain the following concentrations from 800 to 6.25 μg/ml. Those concentrations and stock standard solution are then diluted (1/10) in Mueller-Hinton II Broth in order to obtain the following concentrations from […] (See Table 2).
Each operation is performed under sterile conditions. Each working standard solution (10*the final active ingredient concentration) is distributed in tubes (1 ml, for a final volume of 10 ml after addition of 9 ml of inoculum). One tube without active ingredient is used as growth control (Concentration=0).
Bacterial isolates are sub-cultured from one cryobead on Columbia agar supplemented with 5% of blood. Pure cultures are incubated during 18-24 hours at 37° C. Three to five isolated colonies of similar appearance are selected from a previous culture and transferred into tubes containing 9 ml of Mueller-Hinton II Broth. The broth is incubated during 12-18 hours at 37° C. 0.5 to 1 ml of this broth is inoculated to another Mueller-Hinton II Broth 9 ml tube which is incubated during 3 to 4 hours at 37° C. to reach the exponential growth phase. The bacterial inoculum grown exponential phase is suspended to an optical density of McFarland standard scale 0.5 equivalent to a bacterial density of 10^8 CFU/ml and then adjusted to a concentration of about 5.10^5 CFU/ml as indicated by the guideline CLSI M26-A and to a second inoculum tested: 10^6 CFU/ml.
9 ml of bacterial inoculum grown to exponential phase is added to 1 ml of active ingredient (or Mueller Hinton II Broth for the growth control). Tubes are incubated at 35° C. during 24 hours.
At times 0, 2, 4, 6 and 24 hours, 100 μl of broth of each tube is sampled and diluted in microplates:
Each well is re-cultured by streaking 10 μl on Columbia agar supplemented with 5% of blood. Plates are incubated at 37° C. during 18-24 hours incubation. Thus, residual bacterial concentrations are determined (CFU/ml). Results are expressed in log10 values of CFU/ml over-time in broth. Due to the procedure used, the minimal bacterial concentration that can be assessed is 10^2 CFU/ml.

**Q.** Which results are given for O=C(Nc1cc(Cl)cc(Cl)c1O)c1c(O)c(Cl)cc(Cl)c1Cl [Oxyclozanide]?
**A.** Counting results (1 MIC, 0 h): 4.000E+05 CFU/ml; Counting results (1 MIC, 2 h): 2.600E+04 CFU/ml; Counting results (1 MIC, 4 h): 1.900E+04 CFU/ml; Counting results (1 MIC, 6 h): 1.300E+04 CFU/ml; Counting results (1 MIC, 24 h): 6.000E+05 CFU/ml; Counting results (2 MIC, 0 h): 4.000E+05 CFU/ml; Counting results (2 MIC, 2 h): 1.000E+02 CFU/ml; Counting results (2 MIC, 4 h): 3.000E+02 CFU/ml; Counting results (2 MIC, 6 h): 1.000E+02 CFU/ml; Counting results (2 MIC, 24 h): 2.000E+02 CFU/ml; Counting results (4 MIC, 0 h): 4.000E+05 CFU/ml; Counting results (4 MIC, 2 h): 1.000E+02 CFU/ml; Counting results (4 MIC, 4 h): 1.000E+02 CFU/ml; Counting results (4 MIC, 6 h): 1.000E+02 CFU/ml; Counting results (4 MIC, 24 h): 1.000E+02 CFU/ml; Counting results (8 MIC, 0 h): 4.000E+05 CFU/ml; Counting results (8 MIC, 2 h): 1.000E+02 CFU/ml; Counting results (8 MIC, 4 h): 1.000E+02 CFU/ml; Counting results (8 MIC, 6 h): 1.000E+02 CFU/ml; Counting results (8 MIC, 24 h): 1.000E+02 CFU/ml; Counting results (16 MIC, 0 h): 4.000E+05 CFU/ml; Counting results (16 MIC, 2 h): 1.000E+02 CFU/ml; Counting results (16 MIC, 4 h): 1.000E+02 CFU/ml; Counting results (16 MIC, 6 h): 1.000E+02 CFU/ml; Counting results (16 MIC, 24 h): 1.000E+02 CFU/ml; Time to obtain bactericidal effect at 4 MIC (16125/5.10^5 CFU/ml, >=3 log10 decrease in CFU): 2 h; Counting results (¼ MIC, 0 h): 4.000E+05 CFU/ml; Counting results (¼ MIC, 2 h): 5.500E+05 CFU/ml; Counting results (¼ MIC, 4 h): 2.600E+06 CFU/ml; Counting results (¼ MIC, 6 h): 1.600E+07 CFU/ml; Counting results (¼ MIC, 24 h): 4.900E+10 CFU/ml; Counting results (½ MIC, 0 h): 4.000E+05 CFU/ml; Counting results (½ MIC, 2 h): 3.800E+05 CFU/ml; Counting results (½ MIC, 4 h): 3.100E+05 CFU/ml; Counting results (½ MIC, 6 h): 3.400E+05 CFU/ml; Counting results (½ MIC, 24 h): 3.200E+08 CFU/ml
